The record followed here is patent US8377984B2, “Substituted gamma lactams as therapeutic agents” (Allergan, Inc., priority 2008, dated 2013).

pEC50, pKi: −log10 of the molar value.

As usually defined, the pKi is −log10 of the Ki, conventionally taken in molar units. For orientation: pEC50 means the negative decadic logarithm of the EC50, by convention in mol/L. Read a low pEC50 as a large EC50. In general, EC50 refers to the concentration at which the effect is half-maximal. High values mean weaker potency, low ones greater potency.

The subject of one series is normotensive dogs. Description: Ocular surface hyperemia (OSH) in normotensive dogs. The conditions noted are these: 0.003%. It counts as in vivo. On the procedure:
In Vivo Data (S)-5-(3-(1-(4-hexylphenyl)-5-oxopyrrolidin-2-yl)propyl)thiophene-2-carboxylic acid 2-hydroxyethyl ester (3) was tested in normotensive dogs at 0.003%, dosing once daily for 5 days. The maximum intraocular pressure (IOP) decrease from baseline was 5.9 mmHg (36%) at 54 h; the maximum ocular surface hyperemia (OSH) score was 1.1 at 74 h. This compound was also tested in laser-induced hypertensive monkeys, using one single day dose. At 0.003%, the maximum IOP decrease from baseline was 17 mmHg (44%) at 6 h.
(S)-5-(3-(1-(4-hexylphenyl)-5-oxopyrrolidin-2-yl)propyl)thiophene-2-carboxylic acid (9) was tested in normotensive dogs at 0.003%, dosing once daily for 5 days. The maximum intraocular pressure (IOP) decrease from baseline was 4.7 mmHg (29%) at 6 h; the maximum ocular surface hyperemia (OSH) score was 1.9 at 76 h. This compound was also tested in laser-induced hypertensive monkeys, using one single day dose. At 0.003%, the maximum IOP decrease from baseline was 9 mmHg (23%) at 6 h.
(S)-5-(3-(1-(4-hexylphenyl)-5-oxopyrrolidin-2-yl)propyl)thiophene-2-carboxylic acid isopropyl ester was tested in normotensive dogs at 0.003%, dosing once daily for 4 days. The maximum intraocular pressure (IOP) decrease from baseline was 3.9 mmHg (24%) at 30 h; the maximum ocular surface hyperemia (OSH) score was 0.7 at 28 h. This compound was also tested in laser-induced hypertensive monkeys, using one single day dose. At 0.003%, the maximum IOP decrease from baseline was 12 mmHg (28%) at 6 h.

Series [1] has as its target T1, EP2 (Homo sapiens, UniProt P43116). Briefly: EP2 binding (Ki).
In series [2] the target is T2, EP4 (Homo sapiens, UniProt P35408). Briefly: EP4 flipr. Format: cell-based.
T2 sequence (P35408 whole entry): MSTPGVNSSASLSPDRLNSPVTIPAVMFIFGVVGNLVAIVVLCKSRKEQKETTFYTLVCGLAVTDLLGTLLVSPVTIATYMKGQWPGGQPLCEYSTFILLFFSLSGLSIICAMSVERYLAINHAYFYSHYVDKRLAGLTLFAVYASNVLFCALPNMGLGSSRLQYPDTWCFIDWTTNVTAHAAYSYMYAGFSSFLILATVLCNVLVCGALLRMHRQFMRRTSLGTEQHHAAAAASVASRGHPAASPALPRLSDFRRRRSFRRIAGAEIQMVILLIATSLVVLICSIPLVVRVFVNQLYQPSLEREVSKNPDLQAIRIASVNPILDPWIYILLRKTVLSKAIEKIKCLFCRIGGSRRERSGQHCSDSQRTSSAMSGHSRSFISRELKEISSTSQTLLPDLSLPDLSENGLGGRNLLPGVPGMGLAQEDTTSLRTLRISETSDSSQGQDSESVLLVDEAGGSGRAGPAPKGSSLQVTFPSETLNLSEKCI
Series [3] addresses T1, EP2. Briefly: EP2 cAMP. It counts as cell-based.
In series [4] the target is T1, EP2. Description: EP2 flipr. Format: cell-based.
The next series deals with T3, hEP3A (Homo sapiens, UniProt P43115).
T3 sequence (P43115 1-390): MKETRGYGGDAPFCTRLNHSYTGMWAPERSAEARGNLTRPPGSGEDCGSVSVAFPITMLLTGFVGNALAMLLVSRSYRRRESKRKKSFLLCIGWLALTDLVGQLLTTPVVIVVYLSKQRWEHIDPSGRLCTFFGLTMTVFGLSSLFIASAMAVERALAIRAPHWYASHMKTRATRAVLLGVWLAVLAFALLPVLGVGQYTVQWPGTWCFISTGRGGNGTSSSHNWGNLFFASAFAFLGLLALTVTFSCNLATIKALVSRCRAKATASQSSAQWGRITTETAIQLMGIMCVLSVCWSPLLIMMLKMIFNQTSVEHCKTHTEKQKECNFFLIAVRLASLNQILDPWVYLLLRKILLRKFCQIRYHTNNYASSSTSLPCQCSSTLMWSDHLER
Description: Other receptors, hEP3A. It counts as cell-based.

For series [5], the target named is T2, EP4. Briefly: EP4 binding (Ki).
The target of another series is T4, hDP (Homo sapiens, UniProt Q13258).
T4 sequence (Q13258 1-359): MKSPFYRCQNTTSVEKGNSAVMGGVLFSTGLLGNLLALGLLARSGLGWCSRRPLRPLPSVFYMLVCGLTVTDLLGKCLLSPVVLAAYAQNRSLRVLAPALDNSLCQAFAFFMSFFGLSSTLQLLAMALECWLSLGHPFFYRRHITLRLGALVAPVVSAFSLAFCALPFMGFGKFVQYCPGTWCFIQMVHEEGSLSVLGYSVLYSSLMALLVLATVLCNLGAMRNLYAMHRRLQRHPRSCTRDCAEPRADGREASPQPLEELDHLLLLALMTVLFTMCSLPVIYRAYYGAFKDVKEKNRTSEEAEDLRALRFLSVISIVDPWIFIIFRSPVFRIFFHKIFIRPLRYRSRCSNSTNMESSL
Description: Other receptors, hDP. It counts as cell-based.

T1 sequence (P43116 whole entry): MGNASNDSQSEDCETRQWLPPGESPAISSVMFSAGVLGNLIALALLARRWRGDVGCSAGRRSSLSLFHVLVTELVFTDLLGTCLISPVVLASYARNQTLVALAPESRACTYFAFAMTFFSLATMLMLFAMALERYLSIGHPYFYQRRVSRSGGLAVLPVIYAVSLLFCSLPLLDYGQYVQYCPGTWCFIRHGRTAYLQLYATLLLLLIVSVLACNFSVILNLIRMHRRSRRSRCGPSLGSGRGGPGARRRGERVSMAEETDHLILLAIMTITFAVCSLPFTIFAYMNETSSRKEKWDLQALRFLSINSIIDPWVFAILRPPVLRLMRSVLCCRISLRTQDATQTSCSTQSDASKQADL

Turning to `CCCCCCc1ccc(N2C(=O)CC[C@@H]2CCCc2ccc(C(=O)OC(C)C)s2)cc1` [(S)-5-(3-(1-(4-hexylphenyl)-5-oxopyrrolidin-2-yl)propyl)thiophene-2-carboxylic acid isopropyl ester], the “maximum ocular surface hyperemia (OSH) score” value in the series on normotensive dogs (once daily for 4 days, at 28 h) amounted to 0.7.

In the case of `CCCCCCc1ccc(N2C(=O)CC[C@@H]2CCCc2ccc(C(=O)OCCO)s2)cc1` [Compound 3, (S)-5-(3-(1-(4-hexylphenyl)-5-oxopyrrolidin-2-yl)propyl)thiophene-2-carboxylic acid 2-hydroxyethyl ester], the “maximum ocular surface hyperemia (OSH) score” value in the series with normotensive dogs (once daily for 5 days, at 74 h) was determined as 1.1.

Take `CCCCCCc1ccc(N2C(=O)CC[C@@H]2CCCc2ccc(C(=O)O)s2)cc1` [Compound 9, (S)-5-(3-(1-(4-hexylphenyl)-5-oxopyrrolidin-2-yl)propyl)thiophene-2-carboxylic acid]: the values for the pKi at EP2 [1] and on EP4 [5] were 8.52 and 5.58, respectively. Moreover, the pEC50 is 4.95 at EP4 [2], 9.30 on EP2 [3] and 8.30 at EP2 [4]. Besides, the EC50 on hEP3A was found to be 1550 nM; at hDP, 389 nM. In addition, the “maximum ocular surface hyperemia (OSH) score” value in the series with normotensive dogs (once daily for 5 days, at 76 h) was determined as 1.9.
